Experimental data from ChEMBL document CHEMBL1149005, “Studies on zoapatle, II. Leucanthanolide, a novel sesquiterpene lactone from Montanoa leucantha ssp. leucantha” (1986).
In brackets after ≈: the same amount, converted by molar mass. Activity calls are given as the source filed them. The rule behind the calls is not given here.

Experiments:
Cavia porcellus = assay: Uteroevacuant activity in pregnant guinea pig at 20 mg/kg, ip administered on day 22 of gestation measured daily for 7 days; assay type: functional, organism-based; set-up: dose 20 mg/kg
P388 = assay: Cytotoxicity against mouse P388 cells; assay type: functional; conditions: read-out: ED50 (the source's name)
KB = assay: Cytotoxicity against human KB cells; assay type: functional; conditions: read-out: ED50 (the source's name)

**Q.** What does the source list for `C=C1C(=O)O[C@@H]2/C=C(\C)CC/C=C(\C)[C@@H](OC(=O)C(C)C)[C@H](O)[C@@]12O` [LEUCANTHANOLIDE]?
**A.** Activity (Cavia porcellus): inactive; EC50 (P388): 0.93 µg/mL (≈ 2.65 µM); EC50 (KB): 0.57 µg/mL (≈ 1.63 µM)
